In patent publication US5262417A, “Antibacterial quinolone compounds” (The Upjohn Company, priority 1991, dated 1993):
Values after ≈ are worked out from the molar mass of the structure shown. Where two headings read alike, the source gives them in different places.

Experiments:
Assay in all cases: Minimum inhibitory concentration (MIC) by agar dilution
Assay type in all cases: cell-based
Escherichia coli = settings: Escherichia coli, read-out: Minimum Inhibitory Concentration
Procedure: (§1) The antibacterial activity of the compounds of Formula IC was determined by using standard testing procedures such as the determination of minimum inhibitory concentration (MIC) by agar dilution as described in "Methods for Dilution Antimicrobial Susceptibility Tests for Bacteria That Grow Aerobically" (MFT) published January 1983 by the National Committee for Clinical Laboratory Standards, 771 East Lancaster Avenue, Villanova, Pa. 19084, USA. Briefly, MIC values are determined in unsupplemented Mueller Hinton Agar (MHA). The compounds tested are diluted serially into molten MHA at 47° C. The agar is poured into petri dishes and allowed to harden. The various bacteria used for testing are grown overnight on MHA at 35° C. and transferred to Trypticase soy broth (TSB) until a turbidity of 0.5 McFarland standard is obtained. The bacteria are diluted one to 20 in TSB and inoculated on the plates (1 μl using a Steers replicator).
as §1, with “Compounds of this invention can also be tested for in vitro antimicrobial” for “The antibacterial”, “activity” for “activity of the compounds of Formula IC was determined by”, “Jan.” for “January”, “Penna.” for “Pa.”, “(1μl” for “(1 μl”, “replicator). […] The MIC test results of selected of Formula B compounds of this invention are found in Tables B2-B9.” for “replicator).”

Staphylococcus aureus = settings: Staphylococcus aureus, read-out: Minimum Inhibitory Concentration
Procedure: as §1
as §1, with “Compounds of this invention can also be tested for in vitro antimicrobial” for “The antibacterial”, “activity” for “activity of the compounds of Formula IC was determined by”, “Jan.” for “January”, “Penna.” for “Pa.”, “(1μl” for “(1 μl”, “replicator). […] The MIC test results of selected of Formula B compounds of this invention are found in Tables B2-B9.” for “replicator).”

Klebsiella pneumoniae = settings: UC12081, 20 h, K. pneumoniae UC 12081, Table CI, read-out: Minimum Inhibitory Concentration
Procedure: as §1
as §1, with “Compounds of this invention can also be tested for in vitro antimicrobial” for “The antibacterial”, “activity” for “activity of the compounds of Formula IC was determined by”, “Jan.” for “January”, “Penna.” for “Pa.”, “(1μl” for “(1 μl”, “replicator). […] The MIC test results of selected of Formula B compounds of this invention are found in Tables B2-B9.” for “replicator).”

Pseudomonas aeruginosa = settings: Pseudomonas aeruginosa, read-out: Minimum Inhibitory Concentration
Procedure: as §1
as §1, with “Compounds of this invention can also be tested for in vitro antimicrobial” for “The antibacterial”, “activity” for “activity of the compounds of Formula IC was determined by”, “Jan.” for “January”, “Penna.” for “Pa.”, “(1μl” for “(1 μl”, “replicator). […] The MIC test results of selected of Formula B compounds of this invention are found in Tables B2-B9.” for “replicator).”

[1] = tested on: Acinetobacter calcoaceticus; settings: Acinetobacter calcoaceticus, UC12170, 20 h; A. calcoaceticus UC 12170, Table CI; read-out: Minimum Inhibitory Concentration
Procedure: as §1
as §1, with “Compounds of this invention can also be tested for in vitro antimicrobial” for “The antibacterial”, “activity” for “activity of the compounds of Formula IC was determined by”, “Jan.” for “January”, “Penna.” for “Pa.”, “(1μl” for “(1 μl”, “replicator). […] The MIC test results of selected of Formula B compounds of this invention are found in Tables B2-B9.” for “replicator).”

Serratia marcescens = settings: 20 h, S. marcescens, UC number not given, Table CI, read-out: Minimum Inhibitory Concentration
Procedure: as §1
as §1, with “Compounds of this invention can also be tested for in vitro antimicrobial” for “The antibacterial”, “activity” for “activity of the compounds of Formula IC was determined by”, “Jan.” for “January”, “Penna.” for “Pa.”, “(1μl” for “(1 μl”, “replicator). […] The MIC test results of selected of Formula B compounds of this invention are found in Tables B2-B9.” for “replicator).”

Citerobacter freundii = settings: Citrobacter freundii, UC3507, 20 h; C. freundii UC 3507, Table CI; read-out: Minimum Inhibitory Concentration
Procedure: as §1
as §1, with “Compounds of this invention can also be tested for in vitro antimicrobial” for “The antibacterial”, “activity” for “activity of the compounds of Formula IC was determined by”, “Jan.” for “January”, “Penna.” for “Pa.”, “(1μl” for “(1 μl”, “replicator). […] The MIC test results of selected of Formula B compounds of this invention are found in Tables B2-B9.” for “replicator).”

Streptococcus pyogenes = settings: Streptococcus pyogenes, UC152, 20 h; S. pyogenes UC 152, Table CI; read-out: Minimum Inhibitory Concentration
Procedure: as §1
as §1, with “Compounds of this invention can also be tested for in vitro antimicrobial” for “The antibacterial”, “activity” for “activity of the compounds of Formula IC was determined by”, “Jan.” for “January”, “Penna.” for “Pa.”, “(1μl” for “(1 μl”, “replicator). […] The MIC test results of selected of Formula B compounds of this invention are found in Tables B2-B9.” for “replicator).”

Streptococcus faecalis = settings: Enterococcus faecalis, UC9217, 20 h; S. faecalis UC 9217, Table CI; read-out: Minimum Inhibitory Concentration
Procedure: as §1
as §1, with “Compounds of this invention can also be tested for in vitro antimicrobial” for “The antibacterial”, “activity” for “activity of the compounds of Formula IC was determined by”, “Jan.” for “January”, “Penna.” for “Pa.”, “(1μl” for “(1 μl”, “replicator). […] The MIC test results of selected of Formula B compounds of this invention are found in Tables B2-B9.” for “replicator).”

[2] = tested on: Staphylococcus epidermidis; settings: 20 h, S. epidermidis 30031, Table CI, read-out: Minimum Inhibitory Concentration
Procedure: as §1
as §1, with “Compounds of this invention can also be tested for in vitro antimicrobial” for “The antibacterial”, “activity” for “activity of the compounds of Formula IC was determined by”, “Jan.” for “January”, “Penna.” for “Pa.”, “(1μl” for “(1 μl”, “replicator). […] The MIC test results of selected of Formula B compounds of this invention are found in Tables B2-B9.” for “replicator).”

Proteus penneri = settings: Proteus penneri, UC9679, 20 h; P. penneri UC 9679, Table CI; read-out: Minimum Inhibitory Concentration
Procedure: as §1
as §1, with “Compounds of this invention can also be tested for in vitro antimicrobial” for “The antibacterial”, “activity” for “activity of the compounds of Formula IC was determined by”, “Jan.” for “January”, “Penna.” for “Pa.”, “(1μl” for “(1 μl”, “replicator). […] The MIC test results of selected of Formula B compounds of this invention are found in Tables B2-B9.” for “replicator).”

Streptococcus pneumoniae = settings: Streptococcus pneumoniae, UC41, 20 h; S. pneumoniae UC 41, Table CI; read-out: Minimum Inhibitory Concentration
Procedure: as §1
as §1, with “Compounds of this invention can also be tested for in vitro antimicrobial” for “The antibacterial”, “activity” for “activity of the compounds of Formula IC was determined by”, “Jan.” for “January”, “Penna.” for “Pa.”, “(1μl” for “(1 μl”, “replicator). […] The MIC test results of selected of Formula B compounds of this invention are found in Tables B2-B9.” for “replicator).”

Enterobacter cloacae = settings: UC9382, 20 h, E. cloacae UC 9382, Table CI, read-out: Minimum Inhibitory Concentration
Procedure: Briefly, MIC values are determined in unsupplemented Mueller Hinton Agar (MHA). The compounds tested are diluted serially into molten MHA at 47° C. The agar is poured into petri dishes and allowed to harden. The various bacteria used for testing are grown overnight on MHA at 35° C. and transferred to Trypticase soy broth (TSB) until a turbidity of 0.5 McFarland standard is obtained. The bacteria are diluted one to 20 in TSB and inoculated on the plates (1 μl using a Steers replicator).
as §1, with “Compounds of this invention can also be tested for in vitro antimicrobial” for “The antibacterial”, “activity” for “activity of the compounds of Formula IC was determined by”, “Jan. […]” for “January 1983 by the National Committee for Clinical Laboratory Standards, 771 East Lancaster Avenue, Villanova, Pa. 19084, USA.”, “(1μl” for “(1 μl”

- MIC (Escherichia coli; UC6674, 20 h, E. coli UC 6674, Table CI): 0.125 µg/mL (≈ 0.333 µM)
- MIC (Escherichia coli; UC9451, 20 h, E. coli UC 9451, Table CI): 0.125 µg/mL (≈ 0.333 µM)
- MIC (Escherichia coli; UC9855, 20 h, E. coli UC 9855, Table CI): 0.25 µg/mL (≈ 0.666 µM)
- MIC (Escherichia coli; UC9952, 20 h, E. coli UC 9952, Table CI): 0.125 µg/mL (≈ 0.333 µM)
- MIC (Staphylococcus aureus; UC6685, 20 h, S. aureus UC 6685, Table CI): 0.25 µg/mL (≈ 0.666 µM)
- MIC (Staphylococcus aureus; UC9213, 20 h, S. aureus UC 9213, Table CI): 0.5 µg/mL (≈ 1.33 µM)
- MIC (Staphylococcus aureus; UC9218, 20 h, S. aureus UC 9218, Table CI): 0.5 µg/mL (≈ 1.33 µM)
- MIC (Staphylococcus aureus; UC9271, 20 h, S. aureus UC 9271, Table CI): 0.5 µg/mL (≈ 1.33 µM)
- MIC (Klebsiella pneumoniae): 0.25 µg/mL (≈ 0.666 µM)
- MIC (Pseudomonas aeruginosa; UC6676, 20 h, Ps. aeruginosa UC 6676, Table CI): 2 µg/mL (≈ 5.33 µM)
- MIC (Pseudomonas aeruginosa; UC9191, 20 h, Ps. aeruginosa UC 9191, Table CI): 2 µg/mL (≈ 5.33 µM)
- MIC (Pseudomonas aeruginosa; UC12120, 20 h, Ps. aeruginosa UC 12120, Table CI): 1 µg/mL (≈ 2.66 µM)
- MIC [1]: 0.5 µg/mL (≈ 1.33 µM)
- MIC (Serratia marcescens): 1 µg/mL (≈ 2.66 µM)
- MIC (Citerobacter freundii): 0.125 µg/mL (≈ 0.333 µM)
- MIC (Streptococcus pyogenes): 1 µg/mL (≈ 2.66 µM)
- MIC (Streptococcus faecalis): 2 µg/mL (≈ 5.33 µM)
- MIC [2]: 0.25 µg/mL (≈ 0.666 µM)
- MIC (Proteus penneri): 1 µg/mL (≈ 2.66 µM)
- MIC (Streptococcus pneumoniae): 2 µg/mL (≈ 5.33 µM)
- MIC (Enterobacter cloacae): 0.25 µg/mL (≈ 0.666 µM)
Compound: C#CC(C)(C)n1cc(C(=O)O)c(=O)c2cc(F)c(N3CCC(N)C3)c(F)c21 (racemic) [B]
